In US20260109721A1, “IONIZABLE CATIONIC LIPIDS INCORPORATING SILICON: SYNTHESIS AND LNP FORMULATION” (priority 2023, published 2026):
Like-named read-outs stand apart in the source and are kept apart here.

Tests used:
[1] = system: HepG2 cell line; assay: In vitro toxicity study on HepG2 cell line (resazurin, viability and IC50); assay type: cell-based, human; settings: for Viability (%) at different lipid concentrations, mean: HepG2 cells, 48 h post-treatment, relative to ethanol vehicle controls; for IC50: Homo sapiens, read-out: IC50 value, μM (on HepG2 cell)
How it was run: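 Resazurin read-out (ex 530/em 580 nm, 5 h at 37 °C) measured lipid toxicity 48 h after dosing HepG2 cells (1000/well) at 6.25–800 μM. Viability was normalised to ethanol vehicle, and IC50 was derived from concentration-response curves.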

[2] = LNP size, PDI and zeta potential by Dynamic Light Scattering (Method A); assay type: physicochemical; settings: LNP formulated with the lipid, DLS
How it was run: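 Dynamic light scattering gave size, polydispersity and zeta potential of Method A nanoparticles. These were made from Luc mRNA in 10 mM citrate pH 4.0 combined with ethanol lipid master mix plus ionizable lipid on a dean-type chip (3:1, TFR around 12 ml/min).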

[3] = lipid toxicity, HepG2, 48 h post-treatment, resazurin, 6.25-800 μM

With `CCCCCCCC/C=C\CCCCCCCCOC(=O)C(C)(C)CC(OCCCCCCCC/C=C\CCCCCCCC)O[Si](C)(C)OCCCCCCN(CCCCO)CCCCO` (centres unmarked) [Example 86, (Z)-octadec-9-en-1-yl 18-hydroxy-14-(4-hydroxybutyl)-2,2,6,6-tetramethyl-4-(((Z)-octadec-9-en-1-yl)oxy)-5,7-dioxa-14-aza-6-silaoctadecanoate] the “Viability (%) at different lipid concentrations, mean” value ([1]; 6.25 μM lipid, resazurin) was 95.4%, the “Viability (%) at different lipid concentrations, mean” value ([1]; 12.5 μM lipid, resazurin) was 107.0% and the “Viability (%) at different lipid concentrations, mean” value ([1]; 25 μM lipid, resazurin) was 108.7%. The “Viability (%) at different lipid concentrations, mean” value ([1]; 50 μM lipid, resazurin) was 105.4%, the “Viability (%) at different lipid concentrations, mean” value ([1]; 100 μM lipid, resazurin) was 95.4% and the “Viability (%) at different lipid concentrations, mean” value ([1]; 200 μM lipid, resazurin) was 77.2%. For the same compound, the “Viability (%) at different lipid concentrations, mean” value ([1]; 400 μM lipid, resazurin) was 57.1%, the “Viability (%) at different lipid concentrations, mean” value ([1]; 800 μM lipid, resazurin) was 42.8% and the IC50 [1, 3] was 564 µM. The PDI [2] was 0.25, the “Size (nm)” value [2] was 109.7 nm and the “Zeta potential (mV)” value [2] was −13.69 mV.

With `CCCCC/C=C\C/C=C\CCCCCCCCOC(CCCCCCC/C=C\C/C=C\CCCCC)O[Si](C)(C)OCCCCCCN(C)[C@H](CO)Cc1ccccc1` (stereo partly drawn) [Example 77, (2S,23Z,26Z)-2-benzyl-13-((8Z,11Z)-heptadeca-8,11-dien-1-yl)-3,11,11-trimethyl-10,12,14-trioxa-3-aza-11-siladotriaconta-23,26-dien-1-ol] the “Viability (%) at different lipid concentrations, mean” value ([1]; 6.25 μM lipid, resazurin) was 96.2%, the “Viability (%) at different lipid concentrations, mean” value ([1]; 12.5 μM lipid, resazurin) was 99.9% and the “Viability (%) at different lipid concentrations, mean” value ([1]; 25 μM lipid, resazurin) was 101.0%. For the same compound, the “Viability (%) at different lipid concentrations, mean” value ([1]; 50 μM lipid, resazurin) was 103.7%, the “Viability (%) at different lipid concentrations, mean” value ([1]; 100 μM lipid, resazurin) was 100.6% and the “Viability (%) at different lipid concentrations, mean” value ([1]; 200 μM lipid, resazurin) was 100.5%. For the same compound, the “Viability (%) at different lipid concentrations, mean” value ([1]; 400 μM lipid, resazurin) was 101.1%, the “Viability (%) at different lipid concentrations, mean” value ([1]; 800 μM lipid, resazurin) was 73.8% and the IC50 [1, 3] was over 800 µM. For the same compound, the PDI [2] was 0.05, the “Size (nm)” value [2] was 90.59 nm and the “Zeta potential (mV)” value [2] was −10.95 mV.

For `CCCCCCCC/C=C\CCCCCCCCOC(=O)C(C)(C)CCC(OCCCCCCCC/C=C\CCCCCCCC)O[Si](C)(C)OCCCCCCN1CCOCC1` (centres unmarked) [Example 95, (Z)-octadec-9-en-1-yl 5-((dimethyl((6-morpholinohexyl)oxy)silyl)oxy)-2,2-dimethyl-5-(((Z)-octadec-9-en-1-yl)oxy)pentanoate], the “Viability (%) at different lipid concentrations, mean” value ([1]; 6.25 μM lipid, resazurin) was 102.8%, the “Viability (%) at different lipid concentrations, mean” value ([1]; 12.5 μM lipid, resazurin) was 97.8% and the “Viability (%) at different lipid concentrations, mean” value ([1]; 25 μM lipid, resazurin) was 98.4%. The “Viability (%) at different lipid concentrations, mean” value ([1]; 50 μM lipid, resazurin) was 99.7%, the “Viability (%) at different lipid concentrations, mean” value ([1]; 100 μM lipid, resazurin) was 98.8% and the “Viability (%) at different lipid concentrations, mean” value ([1]; 200 μM lipid, resazurin) was 100.3%. For the same compound, the “Viability (%) at different lipid concentrations, mean” value ([1]; 400 μM lipid, resazurin) was 103.6%, the “Viability (%) at different lipid concentrations, mean” value ([1]; 800 μM lipid, resazurin) was 104.6% and the IC50 [1, 3] was over 800 µM. The PDI [2] was 0.15, the “Size (nm)” value [2] was 90.33 nm and the “Zeta potential (mV)” value [2] was −20.80 mV.

For `C#CCN(C)CCCCCCO[Si](C)(C)OC(CCCCCCC/C=C\C/C=C\CCCCC)OCCCCCCCC/C=C\C/C=C\CCCCC` (centres unmarked) [Example 67, (20Z,23Z)-10-((8Z,11Z)-heptadeca-8,11-dien-1-yl)-N,8,8-trimethyl-N-(prop-2-yn-1-yl)-7,9,11-trioxa-8-silanonacosa-20,23-dien-1-amine], the “Viability (%) at different lipid concentrations, mean” value ([1]; 6.25 μM lipid, resazurin) was 100.2%, the “Viability (%) at different lipid concentrations, mean” value ([1]; 12.5 μM lipid, resazurin) was 97.1% and the “Viability (%) at different lipid concentrations, mean” value ([1]; 25 μM lipid, resazurin) was 99.5%. For the same compound, the “Viability (%) at different lipid concentrations, mean” value ([1]; 50 μM lipid, resazurin) was 95.6%, the “Viability (%) at different lipid concentrations, mean” value ([1]; 100 μM lipid, resazurin) was 92.6% and the “Viability (%) at different lipid concentrations, mean” value ([1]; 200 μM lipid, resazurin) was 24.8%. For the same compound, the “Viability (%) at different lipid concentrations, mean” value ([1]; 400 μM lipid, resazurin) was 3.0%, the “Viability (%) at different lipid concentrations, mean” value ([1]; 800 μM lipid, resazurin) was 1.7% and the PDI [2] was 0.058. The “Size (nm)” value [2] was 127.2 nm and the “Zeta potential (mV)” value [2] was −8.62 mV.

For `CCCCCCCC/C=C\CCCCCCCCOC(CC[C@@H](C)C1CCC2C3CCC4C[C@H](OC)CC[C@]4(C)C3CC[C@@]21C)O[Si](C)(C)OCCCCCCN(CCO)CCO` (stereo partly drawn) [Example 51, (Z)-3-(2-hydroxyethyl)-13-((3R)-3-((3R,10S,13R)-3-methoxy-10,13-dimethylhexadecahydro-1H-cyclopenta[a]phenanthren-17-yl)butyl)-11,11-dimethyl-10,12,14-trioxa-3-aza-11-siladotriacont-23-en-1-ol], the “Viability (%) at different lipid concentrations, mean” value ([1]; 6.25 μM lipid, resazurin) was 98.6%, the “Viability (%) at different lipid concentrations, mean” value ([1]; 12.5 μM lipid, resazurin) was 94.4% and the “Viability (%) at different lipid concentrations, mean” value ([1]; 25 μM lipid, resazurin) was 96.3%. The “Viability (%) at different lipid concentrations, mean” value ([1]; 50 μM lipid, resazurin) was 100.0%, the “Viability (%) at different lipid concentrations, mean” value ([1]; 100 μM lipid, resazurin) was 109.9% and the “Viability (%) at different lipid concentrations, mean” value ([1]; 200 μM lipid, resazurin) was 114.9%. The “Viability (%) at different lipid concentrations, mean” value ([1]; 400 μM lipid, resazurin) was 102.9%, the “Viability (%) at different lipid concentrations, mean” value ([1]; 800 μM lipid, resazurin) was 98.6% and the IC50 [1, 3] was over 800 µM. The PDI [2] was 0.060, the “Size (nm)” value [2] was 135.6 nm and the “Zeta potential (mV)” value [2] was −8.124 mV.

With `CCCCC/C=C\C/C=C\CCCCCCCCO[Si](C)(C)OC(CCCCCCC/C=C\C/C=C\CCCCC)OCCCN(C)C` (centres unmarked) [Example 80, (17Z,20Z)-5-((8Z,11Z)-heptadeca-8,11-dien-1-yl)-N,N,7,7-tetramethyl-4,6,8-trioxa-7-silahexacosa-17,20-dien-1-amine] the “Viability (%) at different lipid concentrations, mean” value ([1]; 6.25 μM lipid, resazurin) was 98.8%, the “Viability (%) at different lipid concentrations, mean” value ([1]; 12.5 μM lipid, resazurin) was 98.68% and the “Viability (%) at different lipid concentrations, mean” value ([1]; 25 μM lipid, resazurin) was 98.64%. The “Viability (%) at different lipid concentrations, mean” value ([1]; 50 μM lipid, resazurin) was 99.05%, the “Viability (%) at different lipid concentrations, mean” value ([1]; 100 μM lipid, resazurin) was 96.68% and the “Viability (%) at different lipid concentrations, mean” value ([1]; 200 μM lipid, resazurin) was 69.13%. For the same compound, the “Viability (%) at different lipid concentrations, mean” value ([1]; 400 μM lipid, resazurin) was 0.79%, the “Viability (%) at different lipid concentrations, mean” value ([1]; 800 μM lipid, resazurin) was 0.71% and the IC50 ([1]; HepG2, 48 h) was 223 µM. The PDI [2] was 0.11, the “Size (nm)” value [2] was 90.19 nm and the “Zeta potential (mV)” value [2] was −26.51 mV.

For `CCCCC/C=C\C/C=C\CCCCCCCCOC(CCCCCCC/C=C\C/C=C\CCCCC)O[Si](C)(C)OCCCCCCN1CCCCC1` (centres unmarked) [Example 57, 1-((20Z,23Z)-10-((8Z,11Z)-heptadeca-8,11-dien-1-yl)-8,8-dimethyl-7,9,11-trioxa-8-silanonacosa-20,23-dien-1-yl)piperidine], the “Viability (%) at different lipid concentrations, mean” value ([1]; 6.25 μM lipid, resazurin) was 97.2%, the “Viability (%) at different lipid concentrations, mean” value ([1]; 12.5 μM lipid, resazurin) was 93.7% and the “Viability (%) at different lipid concentrations, mean” value ([1]; 25 μM lipid, resazurin) was 93.2%. The “Viability (%) at different lipid concentrations, mean” value ([1]; 50 μM lipid, resazurin) was 94.3%, the “Viability (%) at different lipid concentrations, mean” value ([1]; 100 μM lipid, resazurin) was 90.5% and the “Viability (%) at different lipid concentrations, mean” value ([1]; 200 μM lipid, resazurin) was 86.9%. For the same compound, the “Viability (%) at different lipid concentrations, mean” value ([1]; 400 μM lipid, resazurin) was 47.6%, the “Viability (%) at different lipid concentrations, mean” value ([1]; 800 μM lipid, resazurin) was 4.6% and the IC50 ([1]; HepG2, 48 h) was 401 µM. The PDI [2] was 0.041, the “Size (nm)” value [2] was 160.3 nm and the “Zeta potential (mV)” value [2] was −11.06 mV.

With `CCCCCCCCCCCCCCCCOC(CCCCCCCCCCCCCCC)O[Si](C)(C)OCCCCCCN(CCO)CCO` (centres unmarked) [Example 49, 3-(2-hydroxyethyl)-11,11-dimethyl-13-pentadecyl-10,12,14-trioxa-3-aza-11-silatriacontan-1-ol] the “Viability (%) at different lipid concentrations, mean” value ([1]; 6.25 μM lipid, resazurin) was 101.6%, the “Viability (%) at different lipid concentrations, mean” value ([1]; 12.5 μM lipid, resazurin) was 100.3% and the “Viability (%) at different lipid concentrations, mean” value ([1]; 25 μM lipid, resazurin) was 100.4%. For the same compound, the “Viability (%) at different lipid concentrations, mean” value ([1]; 50 μM lipid, resazurin) was 101.0%, the “Viability (%) at different lipid concentrations, mean” value ([1]; 100 μM lipid, resazurin) was 106.4% and the “Viability (%) at different lipid concentrations, mean” value ([1]; 200 μM lipid, resazurin) was 118.4%. For the same compound, the “Viability (%) at different lipid concentrations, mean” value ([1]; 400 μM lipid, resazurin) was 112.6%, the “Viability (%) at different lipid concentrations, mean” value ([1]; 800 μM lipid, resazurin) was 103.0% and the IC50 [1, 3] was over 800 µM. The PDI [2] was 0.396, the “Size (nm)” value [2] was 171.9 nm and the “Zeta potential (mV)” value [2] was −12.77 mV.
